From patent US9302999B2, “Substituted triazoles as herbicides” (E. I. DU PONT DE NEMOURS AND COMPANY, priority 2012, dated 2016)

Assays:
Assay type in all cases: in vivo
[1] = system: morningglory (Ipomoea spp.); experiment: Test A pre-/postemergence: morningglory
Summary of the method: (§1)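 Compounds, formulated with surfactant in non-phytotoxic solvent, were applied as a directed soil spray preemergence and as postemergence sprays to 2–10 cm, one- to two-leaf seedlings grown in loam soil blended with sand; visual injury, 0–100, assessed ~10 days post-treatment against untreated controls.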

[2] = system: barnyardgrass (Echinochloa crus-galli); experiment: Test A pre-/postemergence: barnyardgrass
Summary of the method: as §1

[3] = system: foxtail, giant (giant foxtail, Setaria faberii); experiment: Test C pre-/postemergence: foxtail, giant
Summary of the method: (§2)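 Visual injury scored 0–100 (100 = complete control) against untreated controls after 13–15 greenhouse days. Surfactant-containing solvent formulations applied either to soil after sowing (loam/sand) or over 1- to 4-leaf plants, 2–18 cm tall.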

[4] = system: barnyardgrass (Echinochloa crus-galli); experiment: Test B flooded paddy: barnyardgrass; conditions: Flood; 250 g ai/ha; applied to paddy water at 2-leaf stage; visually evaluated after 13 to 15 days
Summary of the method: (§3)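 Two-leaf-stage plants, pots flooded (3 cm above soil) and treated through the water, which stayed at that depth. After 13–15 days in greenhouse conditions, visual assessment versus controls: 0 is no effect, 100 complete control, dash means no result.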

[5] = system: kochia (Kochia scoparia); experiment: Test C pre-/postemergence: kochia
Summary of the method: as §2

[6] = system: chickweed (common chickweed, Stellaria media); experiment: Test C postemergence: chickweed
Summary of the method: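 Response values are visual ratings, 0 (no effect) to 100 (complete control), made by comparison with untreated controls 13 to 15 days after postemergence treatment of greenhouse-grown potted plants that were 2 to 18 cm high at spraying.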

[7] = system: soybean (Glycine max); experiment: Test C pre-/postemergence: soybean
Summary of the method: as §2

[8] = system: corn (Zea mays); experiment: Test C pre-/postemergence: corn
Summary of the method: as §2

[9] = system: velvetleaf (Abutilon theophrasti); experiment: Test A pre-/postemergence: velvetleaf
Summary of the method: as §1

[10] = system: ducksalad (Heteranthera limosa); experiment: Test B flooded paddy: ducksalad; conditions: Flood; 250 g ai/ha; applied to paddy water at 2-leaf stage; visually evaluated after 13 to 15 days
Summary of the method: as §3

[11] = system: large crabgrass (Digitaria sanguinalis); experiment: Test C pre-/postemergence: large crabgrass
Summary of the method: as §2

[12] = Postemergence, 125 g ai/ha, 0 to 100 scale, 0 is no effect, 100 is complete control
[13] = Postemergence, 500 g ai/ha, visual rating on 0 to 100 scale (0 no effect, 100 complete control), approximately ten days
[14] = Preemergence, 125 g ai/ha, 0 to 100 scale where 0 is no effect and 100 is complete control
[15] = Preemergence, 500 g ai/ha, 0 to 100 scale (0 no effect, 100 complete control)
[16] = Postemergence, 31 g ai/ha, scale 0 to 100 (0 no effect, 100 complete control)
[17] = Postemergence, 62 g ai/ha, scale 0 to 100 (0 no effect, 100 complete control)
[18] = Postemergence, 125 g ai/ha, scale 0 to 100, 0 no effect, 100 complete control
[19] = Postemergence, 250 g ai/ha, scale 0 to 100
[20] = Preemergence, 31 g ai/ha, scale of 0 to 100, 0 is no effect, 100 is complete control
[21] = Preemergence, 62 g ai/ha, scale of 0 to 100, 0 is no effect, 100 is complete control
[22] = Preemergence, 125 g ai/ha, scale 0 to 100, 0 no effect, 100 complete control
[23] = Preemergence, 250 g ai/ha, scale 0 to 100, 0 no effect, 100 complete control
[24] = 31 g ai/ha, scale 0 to 100 (0 no effect, 100 complete control)
[25] = 62 g ai/ha, scale 0 to 100 (0 no effect, 100 complete control)
[26] = 125 g ai/ha, scale 0 to 100, 0 no effect, 100 complete control
[27] = Postemergence, 500 g ai/ha, 0 to 100 scale, 0 is no effect, 100 is complete control
[28] = Preemergence, 31 g ai/ha, scale 0 (no effect) to 100 (complete control)
[29] = Postemergence, 250 g ai/ha, scale 0 to 100 (0 no effect, 100 complete control)

Cc1nn(-c2ccc(C(F)(F)F)c(F)c2)nc1Oc1ccnc(C(F)(F)F)c1 [Compound 148]
Plant response rating, Morningglory [1, 12]: 80
Morningglory plant response rating [1, 13]: 90
Plant response rating, Morningglory [1, 14]: 40
Plant response rating, Morningglory [1, 15]: 90
Barnyardgrass plant response rating [2, 12]: 80
Barnyardgrass plant response rating [2, 13]: 90
Plant response rating, Barnyardgrass [2, 14]: 90
Plant response rating, Barnyardgrass [2, 15]: 100
Plant response rating, Foxtail, Giant [3, 16]: 10
Plant response rating, Foxtail, Giant [3, 17]: 35
Plant response rating, Foxtail, Giant [3, 18]: 35
Plant response rating, Foxtail, Giant [3, 19]: 75
Plant response rating, Foxtail, Giant [3, 20]: 98
Plant response rating, Foxtail, Giant [3, 21]: 100
Plant response rating, Foxtail, Giant [3, 22]: 100
Plant response rating, Foxtail, Giant [3, 23]: 100
Plant response rating, Barnyardgrass (0 to 100 scale, 0 is no effect, 100 is complete control) [4]: 65
Plant response rating, Kochia [5, 16]: 80
Plant response rating, Kochia [5, 17]: 85
Plant response rating, Kochia [5, 18]: 85
Plant response rating, Kochia [5, 19]: 95
Plant response rating, Kochia [5, 20]: 40
Plant response rating, Kochia [5, 21]: 40
Plant response rating, Kochia [5, 22]: 90
Plant response rating, Kochia [5, 23]: 95
Plant response rating, Chickweed [6, 24]: 75
Plant response rating, Chickweed [6, 25]: 75
Plant response rating, Chickweed [6, 26]: 90
Plant response rating, Chickweed ([6]; 250 g ai/ha, scale 0 to 100): 98
Plant response rating, Soybean [7, 16]: 45
Plant response rating, Soybean [7, 17]: 45
Plant response rating, Soybean [7, 18]: 80
Plant response rating, Soybean [7, 19]: 90
Plant response rating, Soybean [7, 20]: 5
Plant response rating, Soybean [7, 21]: 10
Plant response rating, Soybean [7, 22]: 20
Plant response rating, Soybean [7, 23]: 30
Plant response rating, Corn [8, 16]: 25
Plant response rating, Corn [8, 17]: 30
Plant response rating, Corn [8, 18]: 55
Plant response rating, Corn [8, 19]: 60
Plant response rating, Corn [8, 20]: 5
Plant response rating, Corn [8, 21]: 10
Plant response rating, Corn [8, 22]: 15
Plant response rating, Corn [8, 23]: 45
Plant response rating, Velvetleaf [9, 12]: 100
Plant response rating, Velvetleaf [9, 14]: 20
Plant response rating, Velvetleaf [9, 15]: 70
Plant response rating, Ducksalad (0 to 100 scale, 0 is no effect, 100 is complete control) [10]: 85
Plant response rating, Crabgrass, Large [11, 16]: 15
Plant response rating, Crabgrass, Large [11, 17]: 60
Plant response rating, Crabgrass, Large [11, 18]: 60
Plant response rating, Crabgrass, Large [11, 19]: 80
Plant response rating, Crabgrass, Large [11, 20]: 100
Plant response rating, Crabgrass, Large [11, 21]: 100
Plant response rating, Crabgrass, Large [11, 22]: 100
Plant response rating, Crabgrass, Large [11, 23]: 100

CCCc1nn(-c2ccc(F)cc2)nc1Oc1ccnc(C(F)(F)F)c1 [Compound 168]
Plant response rating, Morningglory [1, 14]: 20
Plant response rating, Morningglory [1, 15]: 50
Plant response rating, Barnyardgrass [2, 12]: 90
Barnyardgrass plant response rating [2, 27]: 90
Plant response rating, Barnyardgrass [2, 14]: 90
Plant response rating, Barnyardgrass [2, 15]: 100
Plant response rating, Foxtail, Giant [3, 16]: 55
Plant response rating, Foxtail, Giant [3, 17]: 65
Plant response rating, Foxtail, Giant [3, 18]: 95
Plant response rating, Foxtail, Giant [3, 19]: 95
Plant response rating, Foxtail, Giant [3, 28]: 100
Plant response rating, Foxtail, Giant [3, 21]: 100
Plant response rating, Foxtail, Giant [3, 22]: 100
Plant response rating, Foxtail, Giant [3, 23]: 100
Plant response rating, Barnyardgrass (0 to 100 scale, 0 is no effect, 100 is complete control) [4]: 80
Plant response rating, Kochia [5, 16]: 90
Plant response rating, Kochia [5, 17]: 90
Plant response rating, Kochia [5, 18]: 90
Plant response rating, Kochia [5, 29]: 90
Plant response rating, Chickweed [6, 24]: 80
Plant response rating, Chickweed [6, 25]: 80
Plant response rating, Chickweed [6, 26]: 90
Plant response rating, Chickweed ([6]; 250 g ai/ha, scale 0 to 100): 100
Plant response rating, Soybean [7, 16]: 30
Plant response rating, Soybean [7, 17]: 35
Plant response rating, Soybean [7, 18]: 60
Plant response rating, Soybean [7, 29]: 60
Plant response rating, Soybean [7, 28]: 5
Plant response rating, Soybean [7, 21]: 10
Plant response rating, Soybean [7, 22]: 10
Plant response rating, Soybean [7, 23]: 35
Plant response rating, Corn [8, 16]: 15
Plant response rating, Corn [8, 17]: 15
Plant response rating, Corn [8, 18]: 30
Plant response rating, Corn [8, 19]: 45
Plant response rating, Corn [8, 28]: 5
Plant response rating, Corn [8, 21]: 15
Plant response rating, Corn [8, 22]: 25
Plant response rating, Corn [8, 23]: 55
Plant response rating, Velvetleaf [9, 12]: 100
Velvetleaf plant response rating [9, 27]: 100
Plant response rating, Velvetleaf [9, 14]: 30
Plant response rating, Velvetleaf [9, 15]: 90
Plant response rating, Ducksalad (0 to 100 scale, 0 is no effect, 100 is complete control) [10]: 80
Plant response rating, Crabgrass, Large [11, 16]: 30
Plant response rating, Crabgrass, Large [11, 17]: 65
Plant response rating, Crabgrass, Large [11, 18]: 95
Plant response rating, Crabgrass, Large [11, 19]: 95
Plant response rating, Crabgrass, Large [11, 28]: 100
Plant response rating, Crabgrass, Large [11, 21]: 100
Plant response rating, Crabgrass, Large [11, 22]: 100
Plant response rating, Crabgrass, Large [11, 23]: 100
